Our source for the Observed efficacy values is patent US20180184654A1, “Pesticidal Compositions Comprising a Triazole Compound” (BASF Agro B.V., priority 2015, published 2018).

The subject of one assay is Leptosphaeria nodorum. As to the kind of experiment: Microtest: activity against wheat leaf spots caused by Leptosphaeria nodorum (Leptno). The class given is cell-based. The following applies: MTP, 405 nm, 7 days after inoculation. On the procedure: (§1) The active compounds were formulated separately as a stock solution having a concentration of 10000 ppm in dimethyl sulfoxide.
The stock solutions were mixed according to the ratio, pipetted onto a micro titer plate (MTP) and diluted with water to the stated concentrations. A spore suspension of Leptosphaeria nodorum in an aqueous biomalt or yeast-bactopeptone-glycerine solution was then added. The plates were placed in a water vapor-saturated chamber at a temperature of 18° C. Using an absorption photometer, the MTPs were measured at 405 nm 7 days after the inoculation.
(§2) The measured parameters were compared to the growth of the active compound-free control variant (100%) and the fungus-free and active compound-free blank value to determine the relative growth in % of the pathogens in the respective active compounds.
(§3) These percentages were converted into efficacies.
(§4) The expected efficacies of active compound mixtures were determined using Colby's formula [R. S. Colby, “Calculating synergistic and antagonistic responses of herbicide combinations”, Weeds 15, 20-22 (1967)] and compared with the observed efficacies.

The next assay relates to Septoria tritici. As to the kind of experiment: Microtest: activity against leaf blotch on wheat caused by Septoria tritici (Septtr). In kind it is cell-based. The note with it: MTP, 405 nm, 7 days after inoculation. How it is done: as §1
The stock solutions were mixed according to the ratio, pipetted onto a micro titer plate (MTP) and diluted with water to the stated concentrations. A spore suspension of Septoria tritici in an aqueous biomalt or yeast-bactopeptone-glycerine solution was then added. The plates were placed in a water vapor-saturated chamber at a temperature of 18° C. Using an absorption photometer, the MTPs were measured at 405 nm 7 days after the inoculation.
as §2, §3, §4

Turning to `CC(O)(Cn1cncn1)c1ccc(Oc2ccc(Cl)cc2)cc1C(F)(F)F` (stereo not shown) [I-3, 2-[4-(4-chlorophenoxy)-2-(trifluoromethyl)phenyl]-1-(1,2,4-triazol-1-yl)propan-2-ol], the values for the Observed efficacy in the assay on Leptosphaeria nodorum (single compound at 0.016 ppm) and in the assay with Septoria tritici (single compound at 0.001 ppm) were 23% and 6%, respectively.
In the case of `CCN(C(=O)c1cnn(C(C)C(C)C)c1C)c1ccnnc1` (stereo not shown) [II-2, 1-(1,2-dimethylpropyl)-N-ethyl-5-methyl-N-pyridazin-4-yl-pyrazole-4-carboxamide], the Observed efficacy with Leptosphaeria nodorum (single compound at 63 ppm) and in the assay with Septoria tritici (single compound at 4 ppm) was 7% throughout.
`CCN(C(=O)c1cnn(C(C)C2(C#N)CC2)c1C)c1ccnnc1` (stereo not shown) [II-4, 1-[1-(1-cyanocyclopropyl)ethyl]-N-ethyl-5-methyl-N-pyridazin-4-yl-pyrazole-4-carboxamide]: in the assay with Leptosphaeria nodorum (single compound at 63 ppm), the Observed efficacy is 2%.
Take `CCN(C(=O)c1cnn(C(C)C(C)F)c1C)c1ccnnc1` (stereo not shown) [II-5, N-ethyl-1-(2-fluoro-1-methyl-propyl)-5-methyl-N-pyridazin-4-yl-pyrazole-4-carboxamide]: the figures for the Observed efficacy in the assay with Leptosphaeria nodorum (single compound at 63 ppm) and with Septoria tritici (single compound at 16 ppm) were 12% and 9%, respectively.
